Experimental data as given in US20250154212A1, “METHOD OF DISRUPTING MEMORY AND LIPOPEPTIDE FOR USE IN SUCH METHOD” (The Research Foundation for The State University of New York, priority 2023, published 2025).
Entries after “also recorded” stand apart in the source; their conditions may differ. Where no end group is shown, it is not given here. The star is where a group is joined. Myristoyl = CCCCCCCCCCCCCC(=O)*

Test system: late-LTP in CA1 st. radiatum of hippocampal slices
Assay: Late-LTP recording (fEPSP) in hippocampal slices of wild-type mice
Type: cell-based, mouse
Settings: for effect on established late-LTP (fEPSP slope), tetanized pathway / effect on baseline synaptic transmission, untetanized pathway: wild-type mice; for effect on established late-LTP (fEPSP slope), tetanized pathway: 10 μM applied to the bath 3 h post-tetanization; for effect on baseline synaptic transmission, untetanized pathway: 10 μM in bath; for potentiation after drug washout: drug applied 3 h starting 3 h post-tetanization, then 4-h washout
Protocol: Acute mouse hippocampal slices (450 μm) were prepared as previously described (17, 73). Hippocampi from 2-6-month-old male C57/B6 or PKM ζ-null mice as previously described (17) were dissected, bathed in ice-cold dissection buffer, and sliced with a McIlwain tissue slicer in a cold room (4° C.). The dissection buffer contained (in mM): 125 NaCl, 2.5 KCl, 1.25 NaH2PO4, 26 NaHCO3, 11 glucose, 10 MgCl2, and 0.5 CaCl2), and was bubbled with 95% O2/5% CO2 to maintain pH at 7.4. After dissection the slices were immediately transferred into an Oslo-type interface recording chamber (31.5±1° C.) (73). The recording superfusate consisted of (in mM): 118 NaCl, 3.5 KCl, 2.5 CaCl2), 1.3 MgSO4, 1.25 NaH2PO4, 24 NaHCO3, and 15 glucose, bubbled with 95% O2/5% CO2, with a flow rate of 0.5 ml/min. In a subset of experiments a custom-made recirculation system employing piezoelectric pumps was used for recycling the superfusate (Bartels Mikrotechnik GmbH, Dortmund, Germany) (73).
Field EPSPs were recorded with a glass extracellular recording electrode (2-5 M (2) placed in the CA1 st. radiatum, and concentric bipolar stimulating electrodes (CBBRE75 and 30200; FHC, Bowdoin, ME) were placed on either side within CA3 or CA1. Test stimulation rate was once every 30 sec, alternating every 15 sec between stimulating electrodes. Based upon a pre-established exclusion criterion, a slice was not used if fEPSP spike threshold was <2 mV on initial input-output analysis. Pathway independence was confirmed by the absence of paired-pulse facilitation between the two pathways. A single stimulating electrode was used for PLA/immunocytochemistry with a test stimulation rate of once every 30 sec. The high-frequency stimulation, optimized to produce a relatively rapid onset of protein synthesis-dependent late-LTP (74), consisted of two 100 Hz-1 s tetanic trains, at 25% of spike threshold, spaced 20 sec apart. The maximum slope of the rise of the fEPSP was analyzed on a PC using the WinLTP data acquisition program (75).
Replicates are biological because there is only one measurement for each sample. Drug/vehicle comparisons were performed blindly. Sample sizes vary for the different experimental approaches (biochemistry, slice physiology, and behavior) and were established by power analyses based on effect size estimates from published work or preliminary experiments. The observed effect sizes for binary comparisons are reported as Cohen's d and as η^2p for ANOVA effects. Multi-factor comparisons were performed using ANOVA with repeated measures, as appropriate. Two-population Student's/tests were performed to compare protein immunofluorescence intensity between control and potentiated hippocampal slices. For LTP experiments, the responses were first normalized to the mean of the 30 min period prior to tetanization (or equivalent in control pathways), and then the means over 5 min periods were used for statistical comparisons (e.g., pre-tetanization, beginning and end of drug application). Paired Student's t tests were used to compare the change in the potentiated response at time points at the beginning and end of drug application. The degrees of freedom for the critical t values of the/tests and the F values of the ANOVAs are reported as subscripts. Post-hoc multiple comparisons were performed by Newman-Keuls tests as appropriate. Statistical significance was accepted at P<0.05 or appropriate Bonferroni correction for multiple comparisons.
Now we can test the central prediction of the KIBRA-PKMζ maintenance hypothesis that decoupling PKMζ from KIBRA reverses potentiation of activated synapses. We simultaneously recorded two independent synaptic pathways in st. radiatum within a hippocampal slice. We stimulated one pathway by high-frequency tetanization to induce late-LTP, and in the second pathway we recorded low-frequency test fEPSP responses for the equivalent time. […]

## O=S(=O)(O)c1cc(O)c2c(S(=O)(=O)O)cc(S(=O)(=O)O)cc2c1 [ζ-stat, 1-naphthol-3,6,8-trisulphonic acid]
  effect on established late-LTP (fEPSP slope), tetanized pathway: reverses late-LTP maintenance
  effect on baseline synaptic transmission, untetanized pathway: without measurably affecting synaptic transmission
Listed as z-stat
  effect on established late-LTP (fEPSP slope), tetanized pathway: reverses late-LTP
  effect on baseline synaptic transmission, untetanized pathway: no effect on baseline synaptic transmission
wild-type
  potentiation after drug washout: reversal of potentiation persisted
wild-type, listed as z-stat
  potentiation after drug washout: potentiation does not return
wild-type, first pathway, 150 min post-tetanization with drug
  effect on late-LTP when drug is present at tetanization: suppresses late-LTP
wild-type, tetanized after 1-h washout
  late-LTP in second pathway after washout: late-LTP is induced and maintained in second pathway

## myr-N-FVRNSLERRSVRMKRPS-C (Myristoyl-FVRNSLERRSVRMKRPS) [K-ZAP]
  effect on established late-LTP (fEPSP slope), tetanized pathway: reverses late-LTP maintenance
  effect on baseline synaptic transmission, untetanized pathway: no measurable effect on baseline synaptic transmission; also recorded: no effect on untetanized pathway
